Assay results taken from the supplement of paper PMC10307832.

What was measured:
Test in all cases: relative viability (nuclei count vs DMSO), 5 days (fraction); higher = more cells survive
GW-2580 + Luminespib = compound: COC1=CC=C(C=C1)COC2=C(C=C(C=C2)CC3=CN=C(N=C3N)N)OC [GW-2580] + CCNC(=O)c1noc(-c2cc(C(C)C)c(O)cc2O)c1-c1ccc(CN2CCOCC2)cc1 [Luminespib] (partner 0.01 µM)
Procedure, shortened: (§1)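 After 5 days of treatment, lung cancer cells in 1536-well plates were fixed and stained in a single step (final 0.05% Triton X-100, 1% formaldehyde, 1 ug/ml Hoechst) and their nuclei counted on 4× images. Treatment had been applied by pin tool the day after seeding as one drug alone or as a fixed anchor-drug dose with five library-drug doses (not always all listed) in √10 steps. Relative viability is the nuclei count of treated wells divided by that of vehicle wells, and values are medians of duplicate plates.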

GW-2580 + Pemetrexed = compound: COC1=CC=C(C=C1)COC2=C(C=C(C=C2)CC3=CN=C(N=C3N)N)OC [GW-2580] + Nc1nc2[nH]cc(CCc3ccc(C(=O)N[C@@H](CCC(=O)O)C(=O)O)cc3)c2c(=O)[nH]1 [Pemetrexed] (partner 0.2 µM)
Procedure, shortened: as §1

Fedratinib + Luminespib = compound: Cc1cnc(Nc2ccc(OCCN3CCCC3)cc2)nc1Nc1cccc(S(=O)(=O)NC(C)(C)C)c1 [Fedratinib] + CCNC(=O)c1noc(-c2cc(C(C)C)c(O)cc2O)c1-c1ccc(CN2CCOCC2)cc1 [Luminespib] (partner 0.01 µM)
Procedure, shortened: as §1

Fedratinib + OSI-027 = compound: Cc1cnc(Nc2ccc(OCCN3CCCC3)cc2)nc1Nc1cccc(S(=O)(=O)NC(C)(C)C)c1 [Fedratinib] + COc1cccc2cc(-c3nc([C@H]4CC[C@H](C(=O)O)CC4)n4ncnc(N)c34)[nH]c12 [OSI-027] (partner 0.5 µM)
Procedure, shortened: as §1

Fedratinib + Lapatinib = compound: Cc1cnc(Nc2ccc(OCCN3CCCC3)cc2)nc1Nc1cccc(S(=O)(=O)NC(C)(C)C)c1 [Fedratinib] + CS(=O)(=O)CCNCc1ccc(-c2ccc3ncnc(Nc4ccc(OCc5cccc(F)c5)c(Cl)c4)c3c2)o1 [Lapatinib] (partner 2 µM)
Procedure, shortened: as §1

| Cell Line | relative viability (GW-2580 + Luminespib; first compound 0.08 µM) | relative viability (GW-2580 + Luminespib; first compound 0.8 µM) | relative viability (GW-2580 + Luminespib; first compound 2.53 µM) | relative viability (GW-2580 + Luminespib; first compound 8 µM) | relative viability (GW-2580 + Pemetrexed; first compound 0.08 µM) | relative viability (GW-2580 + Pemetrexed; first compound 0.8 µM) | relative viability (GW-2580 + Pemetrexed; first compound 2.53 µM) | relative viability (GW-2580 + Pemetrexed; first compound 8 µM) | relative viability (Fedratinib + Luminespib; first compound 0.1 µM) | relative viability (Fedratinib + Luminespib; first compound 0.3162 µM) | relative viability (Fedratinib + Luminespib; first compound 1 µM) | relative viability (Fedratinib + OSI-027; first compound 0.1 µM) | relative viability (Fedratinib + OSI-027; first compound 0.3162 µM) | relative viability (Fedratinib + OSI-027; first compound 1 µM) | relative viability (Fedratinib + Lapatinib; first compound 0.1 µM) | relative viability (Fedratinib + Lapatinib; first compound 0.3162 µM) | relative viability (Fedratinib + Lapatinib; first compound 1 µM) |
| --- | --- | --- | --- | --- | --- | --- | --- | --- | --- | --- | --- | --- | --- | --- | --- | --- | --- |
| NCI-H520 | 0.224 | 0.202 | 0.196 | 0.274 | 0.7 | 0.579 | 0.598 | 0.554 | 0.265 | 0.194 | 0.23 | 0.255 | 0.253 | 0.216 | 0.86 | 0.717 | 0.18 |
| NCI-H596 | 0.987 | 1.03 | 0.998 | 0.913 | 0.44 | 0.502 | 0.562 | 0.512 | 0.962 | 1.2 | 0.875 | 0.577 | 0.727 | 0.746 | 0.961 | 1.07 | 0.829 |
| NCI-H647 | 0.128 | 0.323 | 0.136 | 0.205 | 0.16 | 0.185 | 0.16 | 0.229 | 0.15 | 0.209 | 0.177 | 0.625 | 0.697 | 0.444 | 1.22 | 1.12 | 0.173 |
| NCI-H650 | 0.872 | 0.857 | 0.676 | 0.618 | 1.04 | 1.11 | 0.792 | 0.855 | 0.706 | 0.733 | 0.796 | 0.456 | 0.469 | 0.454 |  | 1.07 | 0.347 |
| NCI-H661 | 0.978 | 0.996 | 0.931 | 0.704 | 1.04 | 0.901 | 0.957 | 0.782 | 0.925 | 0.969 | 0.846 | 0.729 | 0.735 | 0.55 | 0.471 | 0.496 | 0.44 |
| NCI-H838 | 0.266 | 0.31 | 0.376 | 0.338 | 0.268 | 0.262 | 0.234 | 0.266 | 0.454 | 0.379 | 0.334 | 0.31 | 0.471 | 0.259 | 0.875 | 1.02 | 0.205 |
| NCI-H1355 | 0.816 | 0.841 | 0.694 | 0.669 | 1.09 | 1.13 | 0.914 | 0.965 | 0.59 | 0.702 | 0.696 | 0.323 | 0.437 | 0.258 | 0.734 | 1.04 | 0.962 |
| NCI-H1395 | 0.723 | 0.665 | 0.648 | 0.59 | 0.9 | 0.986 | 0.863 | 0.88 | 0.661 | 0.868 | 0.62 | 0.553 | 0.694 | 0.545 | 0.911 | 1.11 | 0.786 |
| NCI-H1437 | 1.17 | 1.16 | 1.05 | 0.786 | 0.297 | 0.307 | 0.299 | 0.273 | 1.11 | 1.04 | 1.13 | 0.911 | 0.924 | 0.825 | 0.821 | 0.827 | 0.19 |
| NCI-H1563 | 0.546 | 0.522 | 0.484 | 0.545 | 0.763 | 0.883 | 0.674 | 0.792 | 0.472 | 0.504 | 0.516 | 0.742 | 0.812 | 0.754 | 0.915 | 1.07 | 0.65 |
| NCI-H1650 | 0.195 | 0.195 | 0.197 | 0.182 | 0.468 | 0.391 | 0.418 | 0.371 |  | 0.186 | 0.2 |  | 0.69 | 0.515 | 0.548 | 0.925 | 0.183 |
| NCI-H1651 | 0.877 | 1.01 | 0.8 | 0.823 | 0.605 | 0.711 | 0.578 | 0.45 | 0.764 | 0.716 | 1.09 | 0.707 | 0.653 | 0.62 | 0.817 | 0.813 | 0.118 |
| NCI-H1666 | 0.984 | 1.09 | 0.918 | 0.928 | 0.863 | 0.91 | 0.901 | 0.787 | 0.92 | 0.977 | 1.01 | 0.837 | 0.793 | 0.898 | 0.503 | 0.671 | 0.258 |
| NCI-H1734 | 0.169 | 0.171 | 0.193 | 0.19 | 0.404 | 0.409 | 0.425 | 0.408 | 0.179 | 0.205 | 0.185 | 0.607 | 0.588 | 0.536 | 1.18 | 1.1 | 0.183 |
| NCI-H1755 | 0.697 | 0.401 | 0.332 | 0.45 | 0.677 | 0.474 | 0.429 | 0.43 | 0.367 | 0.595 | 0.381 | 0.601 | 0.757 | 0.651 | 1.02 | 1 | 0.942 |
| NCI-H1792 | 0.503 | 0.444 | 0.567 | 0.411 | 0.843 | 0.773 | 0.688 | 0.644 | 0.231 | 0.419 | 0.362 | 0.607 | 0.808 | 0.748 | 0.879 | 0.905 | 0.827 |
| NCI-H1793 | 0.187 | 0.238 | 0.162 | 0.151 | 0.982 | 1.08 | 0.649 | 0.844 | 0.174 | 0.163 | 0.204 | 0.237 | 0.271 | 0.234 | 0.628 | 0.61 | 0.311 |
